According to patent US11000033B2, “Ketone or oxime compound, and herbicide” (NISSAN CHEMICAL CORPORATION, priority 2014, dated 2021):

How the values were obtained:
Format in all cases: in vivo
Chenopodium album = assay: Test Example 5: herbicidal effect by foliage application, plastic box (symbol O); conditions: 320 g/ha, 3 weeks after application
Method in brief: (§1)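 Effect is rated 3 weeks after a foliar spray of water-diluted emulsion concentrate at a predetermined herbicide amount. Plants had grown 14 days in a 25° C. to 30° C. greenhouse from seed in sterilized diluvial soil.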

Galium spurium [1] = assay: Test Example 5: herbicidal effect by foliage application, plastic box (symbol Q); conditions: 320 g/ha, 3 weeks after application
Method in brief: as §1

beet [2] = assay: Test Example 4: effect on crop by soil treatment (symbol f); conditions: application herbicide amount 320 g/ha
Method in brief: (§2)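 Steps: fill box with sterilized diluvial soil; sow seed spot-like; cover with ~1.5 cm soil; grow in greenhouse (25° C. to 30° C.).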

rapeseed = assay: Test Example 4: effect on crop by soil treatment (symbol g); conditions: application herbicide amount 320 g/ha
Method in brief: as §2

[3] = test system: Echinochloa crus-galli var. crus-galli; assay: Test Example 4: herbicidal effect by soil treatment (symbol H); conditions: application herbicide amount 320 g/ha
Method in brief: (§3)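 Seeds were sown in sterilized diluvial soil, covered with about 1.5 cm of soil, and the soil surface was sprayed with a water-diluted emulsion of the compound at a predetermined rate. Plants grew in a greenhouse at 25° C. to 30° C.; effects were scored visually 3 weeks after application.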

Scirpus juncoides [4] = assay: Test Example 1: herbicidal activity, application before weed generation in submerged conditions (symbol B); conditions: application herbicide amount 320 g/ha
Method in brief: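 Ratings (5: ≥90%, near complete withering; 4: 70–<90%; 3: 40–<70%; 2: 20–<40%; 1: 5–<20%; 0: ≤5%) were assigned 3 weeks after the diluted emulsion was applied to the water surface of freshly sown, submerged pots.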

beet [5] = assay: Test Example 5: effect on crop by foliage application, plastic box (symbol f); conditions: 320 g/ha, 3 weeks after application
Method in brief: (§4)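 In a plastic box 7 cm deep filled with sterilized diluvial soil, seeds of crops and weeds such as Digitaria ciliaris, Avena fatua and Amaranthus retroflexus are sown in spots and covered with about 1.5 cm of soil before greenhouse growth at 25–30° C.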

Scirpus juncoides [6] = assay: Test Example 2: herbicidal activity, application during weed generation in submerged conditions (symbol B); conditions: Table 23; application herbicide amount 320 g/ha; grade 0-5 by criteria of Test Example 1
Method in brief: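 Submerged alluvial soil (4 cm) sown with mixed seed; greenhouse 25–30° C. 1–2 leaf: diluted emulsion onto water surface, preset dose. Visual score, 3 wk.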

Apera spica-venti [7] = assay: Test Example 4: herbicidal effect by soil treatment (symbol L); conditions: application herbicide amount 320 g/ha
Method in brief: as §3

Amaranthus retroflexus = assay: Test Example 4: herbicidal effect by soil treatment (symbol N); conditions: application herbicide amount 320 g/ha
Method in brief: as §3

Setaria viridis = assay: Test Example 5: herbicidal effect by foliage application, plastic box (symbol G); conditions: 320 g/ha, 3 weeks after application
Method in brief: as §1

Avena fatua [8] = assay: Test Example 4: herbicidal effect by soil treatment (symbol I); conditions: application herbicide amount 320 g/ha
Method in brief: as §3

Apera spica-venti [9] = assay: Test Example 5: herbicidal effect by foliage application, plastic box (symbol L); conditions: 320 g/ha, 3 weeks after application
Method in brief: as §1

Avena fatua [10] = assay: Test Example 5: herbicidal effect by foliage application, plastic box (symbol I); conditions: 320 g/ha, 3 weeks after application
Method in brief: as §1

soybean = assay: Test Example 5: effect on crop by foliage application, plastic box (symbol d); conditions: 320 g/ha, 3 weeks after application
Method in brief: as §4

wheat = assay: Test Example 4: effect on crop by soil treatment (symbol e); conditions: application herbicide amount 320 g/ha
Method in brief: as §2

Veronica persica = assay: Test Example 5: herbicidal effect by foliage application, plastic box (symbol R); conditions: 320 g/ha, 3 weeks after application
Method in brief: as §1

Galium spurium [11] = assay: Test Example 4: herbicidal effect by soil treatment (symbol Q); conditions: application herbicide amount 320 g/ha
Method in brief: as §3

Row | Structure (SMILES) | O: Chenopodium album, herbicidal effect (criteria of Test Example 1) (Chenopodium album) | Q: Galium spurium, herbicidal effect (criteria of Test Example 1) (Galium spurium [1]) | f: beet, effect on crop grade (beet [2]) | g: rapeseed, effect on crop grade (rapeseed) | H: Echinochloa crus-galli var. crus-galli, herbicidal effect grade [3] | Herbicidal effect grade, B: Scirpus juncoides (Scirpus juncoides [4]) | f: beet, effect on crop (criteria of Test Example 1) (beet [5]) | Herbicidal effect grade, B: Scirpus juncoides (Scirpus juncoides [6]) | L: Apera spica-venti, herbicidal effect grade (Apera spica-venti [7]) | G: Setaria viridis, herbicidal effect (criteria of Test Example 1) (Setaria viridis) | L: Apera spica-venti, herbicidal effect (criteria of Test Example 1) (Apera spica-venti [9]) | I: Avena fatua, herbicidal effect (criteria of Test Example 1) (Avena fatua [10]) | d: soybean, effect on crop (criteria of Test Example 1) (soybean) | R: Veronica persica, herbicidal effect (criteria of Test Example 1) (Veronica persica) | Effect on crop grade, f: beet (beet [2]) | Effect on crop grade, g: rapeseed (rapeseed) | Herbicidal effect grade, H: Echinochloa crus-galli var. crus-galli [3] | Herbicidal effect grade, N: Amaranthus retroflexus (Amaranthus retroflexus) | Herbicidal effect grade, I: Avena fatua (Avena fatua [8]) | Effect on crop grade, e: wheat (wheat) | other results
1 | CON=C(C)CC1CC(OC(=O)COc2ccccc2)=C(c2c(C)cc(-c3ccc(Cl)cc3)cc2C)C1=O (mixture of isomers) [6-061] | 4 (Herbicidal ratio of 70% or higher and lower than 90%) | 3 (Herbicidal ratio of 40% or higher and lower than 70%) | 0 (Herbicidal ratio of 5% or lower (almost no effect)) | 3 (Herbicidal ratio of 40% or higher and lower than 70%) | 5 (Herbicidal ratio of 90% or more (almost completely withered)) | 1 (Herbicidal ratio of 5% or higher and lower than 20%) | 3 (Herbicidal ratio of 40% or higher and lower than 70%) | 4 (Herbicidal ratio of 70% or higher and lower than 90%) | 5 (Herbicidal ratio of 90% or more (almost completely withered)) | 5 (Herbicidal ratio of 90% or more (almost completely withered)) | 5 (Herbicidal ratio of 90% or more (almost completely withered)) | 5 (Herbicidal ratio of 90% or more (almost completely withered)) | 3 (Herbicidal ratio of 40% or higher and lower than 70%) | 4 (Herbicidal ratio of 70% or higher and lower than 90%) |  |  |  |  |  |  | N: Amaranthus retroflexus, herbicidal effect grade (Amaranthus retroflexus): 3 (Herbicidal ratio of 40% or higher and lower than 70%); I: Avena fatua, herbicidal effect grade (Avena fatua [8]): 4 (Herbicidal ratio of 70% or higher and lower than 90%); e: wheat, effect on crop grade (wheat): 2 (Herbicidal ratio of 20% or higher and lower than 40%)
2 | CON=C(C)CC1CC(O)=C(c2c(C)cc(C3CC3)cc2C)C1=O (stereo not drawn) [6-050] |  |  | 0 (Herbicidal ratio of 5% or lower (almost no effect)) | 2 (Herbicidal ratio of 20% or higher and lower than 40%) | 4 (Herbicidal ratio of 70% or higher and lower than 90%) | 1 (Herbicidal ratio of 5% or higher and lower than 20%) |  | 0 (Herbicidal ratio of 5% or lower (almost no effect)) | 0 (Herbicidal ratio of 5% or lower (almost no effect)) |  |  |  |  |  |  |  |  |  |  |  | O: Chenopodium album, herbicidal effect grade (Chenopodium album): 3 (Herbicidal ratio of 40% or higher and lower than 70%); Q: Galium spurium, herbicidal effect grade (Galium spurium [1]): 3 (Herbicidal ratio of 40% or higher and lower than 70%); f: beet, effect on crop grade (beet [5]): 2 (Herbicidal ratio of 20% or higher and lower than 40%); N: Amaranthus retroflexus, herbicidal effect grade (Amaranthus retroflexus): 0 (Herbicidal ratio of 5% or lower (almost no effect)); G: Setaria viridis, herbicidal effect grade (Setaria viridis): 2 (Herbicidal ratio of 20% or higher and lower than 40%); I: Avena fatua, herbicidal effect grade (Avena fatua [8]): 2 (Herbicidal ratio of 20% or higher and lower than 40%); L: Apera spica-venti, herbicidal effect grade (Apera spica-venti [9]): 4 (Herbicidal ratio of 70% or higher and lower than 90%); I: Avena fatua, herbicidal effect grade (Avena fatua [10]): 2 (Herbicidal ratio of 20% or higher and lower than 40%); d: soybean, effect on crop grade (soybean): 0 (Herbicidal ratio of 5% or lower (almost no effect)); e: wheat, effect on crop grade (wheat): 0 (Herbicidal ratio of 5% or lower (almost no effect)); R: Veronica persica, herbicidal effect grade (Veronica persica): 2 (Herbicidal ratio of 20% or higher and lower than 40%)
3 | CON=C(C)CC1CC(O)=C(c2c(C)cc(-c3cc(Cl)cc(Cl)c3)cc2C)C1=O (stereo not drawn) [6-087] | 0 (Herbicidal ratio of 5% or lower (almost no effect)) |  |  |  |  | 0 (Herbicidal ratio of 5% or lower (almost no effect)) | 0 (Herbicidal ratio of 5% or lower (almost no effect)) | 0 (Herbicidal ratio of 5% or lower (almost no effect)) |  | 5 (Herbicidal ratio of 90% or more (almost completely withered)) | 3 (Herbicidal ratio of 40% or higher and lower than 70%) | 0 (Herbicidal ratio of 5% or lower (almost no effect)) | 3 (Herbicidal ratio of 40% or higher and lower than 70%) | 4 (Herbicidal ratio of 70% or higher and lower than 90%) | 0 (Herbicidal ratio of 5% or lower (almost no effect)) | 1 (Herbicidal ratio of 5% or higher and lower than 20%) | 5 (Herbicidal ratio of 90% or more (almost completely withered)) | 0 (Herbicidal ratio of 5% or lower (almost no effect)) | 0 (Herbicidal ratio of 5% or lower (almost no effect)) | 0 (Herbicidal ratio of 5% or lower (almost no effect)) | Herbicidal effect grade, Q: Galium spurium (Galium spurium [11]): 0 (Herbicidal ratio of 5% or lower (almost no effect))
4 | COc1ccc(-c2cc(C)c(C3=C(O)CC(CC(C)=O)C3=O)c(C)c2)cc1 (stereo not drawn) [7-006] | 3 (Herbicidal ratio of 40% or higher and lower than 70%) | 0 (Herbicidal ratio of 5% or lower (almost no effect)) |  |  |  | 0 (Herbicidal ratio of 5% or lower (almost no effect)) | 0 (Herbicidal ratio of 5% or lower (almost no effect)) | 0 (Herbicidal ratio of 5% or lower (almost no effect)) |  | 5 (Herbicidal ratio of 90% or more (almost completely withered)) | 4 (Herbicidal ratio of 70% or higher and lower than 90%) | 3 (Herbicidal ratio of 40% or higher and lower than 70%) | 0 (Herbicidal ratio of 5% or lower (almost no effect)) | 0 (Herbicidal ratio of 5% or lower (almost no effect)) | 0 (Herbicidal ratio of 5% or lower (almost no effect)) | 0 (Herbicidal ratio of 5% or lower (almost no effect)) | 0 (Herbicidal ratio of 5% or lower (almost no effect)) | 0 (Herbicidal ratio of 5% or lower (almost no effect)) | 0 (Herbicidal ratio of 5% or lower (almost no effect)) | 0 (Herbicidal ratio of 5% or lower (almost no effect)) | Herbicidal effect grade, L: Apera spica-venti (Apera spica-venti [7]): 0 (Herbicidal ratio of 5% or lower (almost no effect))
5 | CON=C(C)C(=NOC)C1CC(O)=C(c2c(C)cc(C)cc2C)C1=O (stereo not drawn) [8-003] |  |  |  |  |  | 0 (Herbicidal ratio of 5% or lower (almost no effect)) |  | 0 (Herbicidal ratio of 5% or lower (almost no effect)) |  |  |  |  |  |  | 0 (Herbicidal ratio of 5% or lower (almost no effect)) | 0 (Herbicidal ratio of 5% or lower (almost no effect)) | 0 (Herbicidal ratio of 5% or lower (almost no effect)) | 0 (Herbicidal ratio of 5% or lower (almost no effect)) | 0 (Herbicidal ratio of 5% or lower (almost no effect)) | 0 (Herbicidal ratio of 5% or lower (almost no effect)) | O: Chenopodium album, herbicidal effect grade (Chenopodium album): 0 (Herbicidal ratio of 5% or lower (almost no effect)); Q: Galium spurium, herbicidal effect grade (Galium spurium [1]): 0 (Herbicidal ratio of 5% or lower (almost no effect)); f: beet, effect on crop grade (beet [5]): 0 (Herbicidal ratio of 5% or lower (almost no effect)); Herbicidal effect grade, L: Apera spica-venti (Apera spica-venti [7]): 0 (Herbicidal ratio of 5% or lower (almost no effect)); G: Setaria viridis, herbicidal effect grade (Setaria viridis): 0 (Herbicidal ratio of 5% or lower (almost no effect)); L: Apera spica-venti, herbicidal effect grade (Apera spica-venti [9]): 0 (Herbicidal ratio of 5% or lower (almost no effect)); I: Avena fatua, herbicidal effect grade (Avena fatua [10]): 0 (Herbicidal ratio of 5% or lower (almost no effect)); d: soybean, effect on crop grade (soybean): 0 (Herbicidal ratio of 5% or lower (almost no effect)); R: Veronica persica, herbicidal effect grade (Veronica persica): 0 (Herbicidal ratio of 5% or lower (almost no effect))
